# Experimental data taken from patent US6406908B1, “Vanilloid receptor” (Novartis AG, priority 1999, dated 2002).
# Where two headings read alike, the source gives them in different places.
# Columns and labels:
# [1] = system: Rat DRG neurones; conditions: inhibition of capsaicin response; from Wood et al (1988); read-out: IC50 (nM) (Ca uptake assay) Rat DRG neurones; cited from earlier work
# [2] = biological target: T1, rVR1 (Rattus norvegicus, UniProt O35433); experiment: Aequorin luminescence assay, rVR1 in CHO cells; type: cell-based
# T1 construct: expressed in transfected cells
# Experimental: (§1) All the plates for use in a day are set up at the same time. The first plate is used in the assay after 2.5 h incubation with coelenterazine h. Subsequent plates are used at about 10 min intervals. […] At the start of the assay, the medium containing coelenterazine h is removed and replaced with 100 μl of HBSS buffered to pH 7.4 with 10 mM HEPES containing test compounds where appropriate. Cells are incubated for at least 10 min at RT. They are then placed in the measuring chamber of a luminometer (Wallac Microbeta Jet). Agonist is injected in a volume of 20 μl HBSS and the luminescence signal is collected for 20 sec.
# [3] = biological target: T2, hVR1 (Homo sapiens, UniProt Q8NER1); experiment: Aequorin luminescence assay, hVR1 in CHO cells; type: cell-based
# T2 construct: expressed in transfected cells
# Experimental: as §1
# [4] = system: Rat DRG neurones; experiment: 45Ca calcium uptake assay in primary cultures of DRG neurones; type: cell-based
# Experimental: Primary cultures of adult DRG neurones are prepared according to standard protocols [Wood et al., J. Neuroscience 8:3208-3220 (1988)]. Cells are plated at a density of 2000 per well on 96 well view plates pre-coated with poly-ornithine and laminin and cultured in Hams F14 supplemented with 100 ng/ml NGF for four days. On the day of the assay, the cells are washed eight times in a Denley cell washer with calcium/magnesium free HBSS plus 10 mM HEPES, pH7.4. After washing the wells contain approximately 75 μl of buffer. […] For negative control, capsaicin is omitted. Samples are incubated at RT for 10 min, then washed four times with HBSS/10 mM HEPES pH 7.4. The remaining buffer is removed from the wells and replaced with 25 μl of 0.1% SDS. After about 10 min 200 μl of Microscint 40 scintillant is added and samples are counted on a Packard Topcount.
# [5] = biological target: T3, human vanilloid receptor (Homo sapiens, UniProt Q8NER1); experiment: Activation of human vanilloid receptor expressed in mammalian cells; type: cell-based
# T3 construct: expressed in transfected cells
# [6] = biological target: T2, hVR1; experiment: Fluorometric Fluo-3 assay using the FLIPR, hVR1 in CHO cells; type: cell-based
# Experimental: Cells resulting from Examples A1 or A2 are plated at a density of 50,000 cells/well in Costar Viewplates. The cells are incubated at 37° C. in a humidified atmosphere (5% CO2/95% air) for 24 h. Medium is removed by flicking the plates and replaced with 100 μl HBSS containing 2 μM Fluo-3, AM (Molecular Probes) in the presence of 2.5 mM probenicid (Sigma) and 0.02% pluronic acid (Molecular Probes). The cells are incubated at 37° C. in a humidified atmosphere (5% CO2/95% air) for 1 h. Plates are flicked to remove excess of Fluo-3, AM, washed twice with HBSS and refilled with 100 μl of HBSS containing screening compounds. Incubation in the presence of screening compounds lasts between 10 and 20 min. Plates are then placed in the cell plate stage of the FLIPR (Molecular Devices, Sunnyvale, Calif., USA). A baseline consisting in 5 measurements of 0.4 sec each (laser: excitation 488 nm at 0.6 W, CCD camera opening of 0.4 sec) is recorded.
# [7] = inhibition of capsaicin response, capsaicin 1 μM
# T2 sequence (Q8NER1 whole entry): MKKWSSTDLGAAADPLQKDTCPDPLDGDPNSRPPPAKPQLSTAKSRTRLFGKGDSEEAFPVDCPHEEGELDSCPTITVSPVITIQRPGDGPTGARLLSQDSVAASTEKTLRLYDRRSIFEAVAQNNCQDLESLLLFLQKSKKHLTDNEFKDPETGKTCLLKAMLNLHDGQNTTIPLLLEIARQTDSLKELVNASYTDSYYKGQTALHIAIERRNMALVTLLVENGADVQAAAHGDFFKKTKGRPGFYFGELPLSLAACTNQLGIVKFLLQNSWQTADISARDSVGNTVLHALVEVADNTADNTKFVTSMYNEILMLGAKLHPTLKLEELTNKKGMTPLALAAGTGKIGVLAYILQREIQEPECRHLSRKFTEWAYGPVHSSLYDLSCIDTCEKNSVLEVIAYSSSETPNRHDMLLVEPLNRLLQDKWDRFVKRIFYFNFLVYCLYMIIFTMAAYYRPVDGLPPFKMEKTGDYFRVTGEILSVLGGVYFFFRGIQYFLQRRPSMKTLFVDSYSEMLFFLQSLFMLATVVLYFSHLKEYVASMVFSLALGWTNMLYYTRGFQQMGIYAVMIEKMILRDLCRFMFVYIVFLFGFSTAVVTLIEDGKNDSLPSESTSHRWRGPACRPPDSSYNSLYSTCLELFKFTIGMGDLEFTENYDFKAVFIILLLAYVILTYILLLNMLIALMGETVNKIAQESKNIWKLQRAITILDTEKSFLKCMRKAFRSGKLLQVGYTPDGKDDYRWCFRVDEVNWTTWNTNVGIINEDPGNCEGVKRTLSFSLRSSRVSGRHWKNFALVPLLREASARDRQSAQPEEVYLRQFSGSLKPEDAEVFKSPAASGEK
# T3 sequence (Q8NER1 whole entry): as above
# T1 sequence (O35433 whole entry): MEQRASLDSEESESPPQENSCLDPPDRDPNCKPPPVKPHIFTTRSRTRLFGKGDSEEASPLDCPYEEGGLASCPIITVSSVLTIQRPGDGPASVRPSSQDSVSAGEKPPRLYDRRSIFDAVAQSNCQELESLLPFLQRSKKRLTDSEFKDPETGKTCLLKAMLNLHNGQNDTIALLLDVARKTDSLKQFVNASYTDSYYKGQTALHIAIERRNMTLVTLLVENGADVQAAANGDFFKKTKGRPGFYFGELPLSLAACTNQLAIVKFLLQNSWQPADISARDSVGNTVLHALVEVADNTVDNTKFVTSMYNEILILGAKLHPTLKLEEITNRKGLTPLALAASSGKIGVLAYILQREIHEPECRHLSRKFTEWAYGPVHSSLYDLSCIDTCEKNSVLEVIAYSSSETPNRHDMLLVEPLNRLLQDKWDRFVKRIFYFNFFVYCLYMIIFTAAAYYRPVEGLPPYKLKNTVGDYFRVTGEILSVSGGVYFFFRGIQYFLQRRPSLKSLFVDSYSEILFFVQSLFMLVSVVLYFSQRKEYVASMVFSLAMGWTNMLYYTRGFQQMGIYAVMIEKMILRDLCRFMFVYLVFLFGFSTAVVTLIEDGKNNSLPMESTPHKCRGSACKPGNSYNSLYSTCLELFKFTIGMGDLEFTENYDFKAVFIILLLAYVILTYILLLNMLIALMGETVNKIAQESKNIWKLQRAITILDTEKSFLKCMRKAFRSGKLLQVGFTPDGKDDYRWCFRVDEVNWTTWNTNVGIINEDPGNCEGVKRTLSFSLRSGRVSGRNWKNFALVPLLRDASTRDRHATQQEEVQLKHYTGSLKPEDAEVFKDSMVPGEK
compound,measurement,setting,value
"N.N.N.N.N.N.N.N.N.N.N.N.N.N.[Cl-].[Cl-].[Cl-].[Cl-].[Cl-].[Cl-].[O-2].[O-2].[Ru+3].[Ru+3].[Ru+4] [Rr, Ruthenium red]",IC50,[1],50 nM
same,IC50,[2]; [7],18 ± 8.3 nM
same,IC50,[3]; [7],220 ± 32 nM
same,Blocking of capsaicin responses,"[3]; measured as in Example B1, stated generally for the assays",effective blocker of capsaicin responses
COc1cc(CNC(=O)CCCC/C=C/C(C)C)ccc1O [Capsaicin],EC50,[4]; 10 min,170 ± 19 nM
same,Activation of the human vanilloid receptor,[5],activated by capsaicin
"Oc1cc2c(cc1O)CN(C(=S)NCCc1ccc(Cl)cc1)CCC2 [Cz, Capsazepine]",IC50,[4],800 ± 40 nM
same,IC50,[6],130 ± 32 nM
same,IC50,[2],320 ± 110 nM
same,"Block of activation by capsaicin, temperatures greater than 42° C. and pH less than 5.5",[5],blocked substantially or completely
same,IC50,[3],120 ± 12 nM
